Measured values from US6403831B1, “Substituted benzylidene indenyl formamides, acetamides and propionamides” (Cell Pathways, Inc., priority 1996, dated 2002).
Marks after values point to notes of the source that are not given here.

How the values were obtained:
[1] = system: HT-29 human colon carcinoma cells; assay: Apoptosis by morphology (acridine orange/ethidium bromide, condensed chromatin); type: cell-based; settings: HT-29 cells
Method: Apoptosis was measured using an assay of cell death based on morphological characteristics of apoptotic cells (i.e., condensed chromatin). Drug preparation and cell culture conditions were the same as for the SRB assay described above, except that HT-29 human colon carcinoma cells were employed/Confluent cultures were established in 12.5 cm^2 flasks by plating 0.5×10^6 cells/flask. The cultures were assayed for apoptosis by fluorescent microscopy following labeling with acridine orange and ethidium bromide. Floating and attached cells were collected by trypsinization and washed three times in PBS. One ml aliquots were centrifuged (3 g). The pellet was resuspended in 25 μl media and 1 μl of a dye mixture containing 100 μg/ml acridine orange and 100 μg/ml ethidium bromide prepared in PBS and mixed gently. Ten μl of mixture was placed on a microscope slide and covered with a 22 mm^2 coverslip and examined under 40×dry objectives using epillumination and filter combination.
An observer blinded to the identity of the treatments scored at least 100 cells per sample. Apoptotic cells were identified by nuclear condensation of chromatin stained by the acridine orange or ethidium bromide.

[2] = system: human colon carcinoma cell line, SW-480; assay: Growth inhibition, Sulforhodamine B (SRB) protein binding assay; type: cell-based; settings: SW-480 cell line, six days continuous exposure
Method: These compounds were assayed for their growth inhibitory activity on the human colon carcinoma cell line, SW-480 obtained from ATCC (Rockville, Md.), to ascertain the degree of growth inhibition. Growth inhibition of this cell line is indicative of a benefit on precancerous lesions and neoplasms. The cell line and growth assay employed for these experiments are well characterized, and are used to evaluate the anti-neoplastic properties of NSAIDs. The assay is used by the United States National Cancer Institute in its screening program for new anti-cancer drugs.
Drug stock solutions were made in 100% DMSO then diluted with RPMI media for cell culture testing. All drug solutions were prepared fresh on the day of testing. The cultured cells were obtained at passage #99 and grown in RPMI media supplemented with 5% fetal calf serum, and 2 mM glutamine, 100 U/ml penicillin, 100 U/ml streptomycin, and 0.25 μg/ml amphotericin. The cultures were maintained in a humidified atmosphere of 95% air and 5% CO2 at 37° C. The cultures were passaged at preconfluent densities using a solution of 0.05% trypsin and 0.53 mM EDTA. Cells were plated at 1000 cells/well for 96 well flat-bottom microtiter plates.
Tumor cell growth inhibition was assessed using the Sulforhodamine B (SRB) protein binding assay. In this assay, tumor cells were plated in 96-well plates and treated with drug-containing media for six days (continuous exposure). For each plate, 6 wells were designated as no treatment controls, six wells as vehicle (0.1% DMSO) controls, and the remaining wells for drug dilutions with three wells per drug concentration. At the end of the exposure period, the cells were fixed and stained with sulforhodamine B, a protein binding dye. The dye was then solubilized, and the optical density of the resulting solution was determined on a 96-well plate reader. The mean dye intensity of the treated wells was then divided by the mean dye intensity in the control wells (6 wells of each) to determine the effect of the drug on the cells. Dye intensity is proportional to the number of cells or amount of protein per well. The resultant “percent inhibition” value then represents the degree of growth inhibition caused by the drug.
For each experiment, an IC50 value was determined and used for comparative purposes. This value is equivalent to the concentration of drug needed to inhibit tumor cell growth by 50%. IC50 values were obtained graphically by connecting the mean values for each drug concentration tested. Each experiment included at least three wells per drug concentration. Concentration was plotted on a log scale on the X-axis.

[3] = system: SW-480 colon adenocarcinoma cells; assay: Apoptosis by DNA fragmentation (Cell Death Detection ELISA plus); type: cell-based, human; settings: SW-480 cells, 48 hrs; for EC50: by software or estimated from effective concentration range; for DNA Fragmentation FS (100 μM): fold stimulation FS=ODmax/ODveh
Method: Apoptosis was also measured based on the amount of fragmented DNA contained in cell lysates. Briefly, SW-480 colon adenocarcinoma cells were plated in 96-well microtitre plates (“MTP”) at a density of 10K cells/well in 180 μl and incubated for 24 hrs. Cells were then treated with 20 μl aliquots of appropriately diluted compound, and allowed to incubate for an additional 48 hrs.
After the incubation, samples were prepared according to the following steps. The MTP was centrifuged (15 min., 1000 rpm) and the supernatant was carefully removed by fast inversion of the MTP. The cell pellents in each well were then resuspended in ^200 μl lysis buffer and incubated for 45 min. at room temperature to lyse the cells. The lysates were then centrifuged (15 min., 1000 rpm) and 20 μl aliquots of the supernatant (=cytoplasmic fraction) were transferred into the streptavidin coated MTP for analysis. Care was taken not to shake the lysed pellets in the MTP (=cell nucleii containing high molecular weight, unfragmented DNA). Samples were analyzed immediately, because storage at 4 C or −20 C reduces the ELISA-signals.
Samples were then processed according to a DNA fragmentation assay protocol, and dose-response curves were generated based on optical density readings. Quantification of DNA was done by a commercially available photometric enzyme-immunoassay manufactured by Mannheim-Boehringer under the name “Cell Death Detection ELISA^plus”. The assay is based on a quantitative sandwich-enzyme-immunoassay-principle using mouse monoclonal antibodies directed against DNA and histones, respectively. This allows the specific determination of mono and oligonucleosomes in the cytoplasmatic fraction of cell lysates. In brief, the assay procedure is as follows. The sample (cell-lysate, serum, culture-supernatant etc.) is placed into a streptavidin-coated MTP. Subsequently, a mixture of anti-histone-biotin and anti-DNA-POD are added and incubated for 2 hours. During the incubation period, the anti-histone antibody binds to the histone-component of the nucleosomes and simultaneously fixes the immunocomplex to the streptavidin-coated MTP via its biotinylation. Additionally, the anti-DNA-POD antibody reacts with the DNA component of the nucleosomes. After removal of unbound antibodies by a washing step, the amount of nucleosomes is quantified by the POD retained in the immunocomplex. POD is determined photometrically with ABTS® (2,2′-Azino-di[3-ethylbenzthiazolin-sulfonat])* as substrate.
Fold stimulation (FS=ODmax/ODveh), an indicator of apoptotic response, was determined for each compound tested. EC50 values were determined either specifically by data analysis software, or by estimates based on the effective concentration range of each compound (ECR=min. effective dose-min. dose to peak effect). These FS and EC50 values for the tested compounds are listed above in Table 6.

[4] = biological target: T1, COX I (Ovis aries, UniProt P05979); assay: Cyclooxygenase (COX) inhibition, purified COX; type: biochemical; settings: purified COX from ram seminal vesicles; for COX I % Inhibition (values marked *): values marked *: 1000 μM test compound; for COX I % Inhibition (100 μM): 100 μM test compound, arachidonic acid 100 μM
T1 construct: The COX was purified form ram seminal vesicles; from tissue; host or cells: ram seminal vesicles
T1 sequence (P05979 25-600): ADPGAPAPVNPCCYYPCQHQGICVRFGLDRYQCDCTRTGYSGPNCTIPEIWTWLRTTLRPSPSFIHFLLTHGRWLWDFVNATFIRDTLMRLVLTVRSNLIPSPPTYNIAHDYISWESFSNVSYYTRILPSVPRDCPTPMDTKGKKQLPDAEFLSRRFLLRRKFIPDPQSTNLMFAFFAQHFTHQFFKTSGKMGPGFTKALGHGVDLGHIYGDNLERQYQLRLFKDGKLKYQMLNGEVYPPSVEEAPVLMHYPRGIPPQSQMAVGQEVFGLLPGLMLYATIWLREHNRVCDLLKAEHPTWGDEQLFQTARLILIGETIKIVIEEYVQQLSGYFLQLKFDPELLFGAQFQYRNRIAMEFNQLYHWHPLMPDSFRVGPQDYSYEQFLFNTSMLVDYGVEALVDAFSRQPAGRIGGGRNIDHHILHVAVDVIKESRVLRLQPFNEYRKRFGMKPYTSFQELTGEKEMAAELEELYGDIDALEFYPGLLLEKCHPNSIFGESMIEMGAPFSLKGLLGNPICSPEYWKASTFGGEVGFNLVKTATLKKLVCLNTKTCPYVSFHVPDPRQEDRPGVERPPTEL
In short: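 Ram seminal vesicle COX, purified, was incubated 2.0 min at 37° C with 100 μM arachidonic acid with or without test compounds. Reactions stopped with TCA; activity read as absorbance at 530 nm.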

Structure (SMILES) | Morphology % Apoptotic Cells (1 μM) [1] | IC50 [2] | EC50 [3] | DNA Fragmentation FS (100 μM) [3] | COX I % Inhibition (values marked *) [4] | COX I % Inhibition (100 μM) [4]
COc1cc(/C=C2/C(C)=C(CC(=O)NCCCCc3ccccc3)c3cc(F)ccc32)cc(OC)c1OC [Example 41, (Z)-5-fluoro-2-methyl-1-(3,4,5-trimethoxybenzylidene)-3-(N-4-phenylbutyl)-indenylacetamide] | 30% | > 10000 nM | > 10000 nM | <2 | 59* % | –
COc1cc(/C=C2/C(C)=C(CC(=O)NCCCN(C)C)c3cc(F)ccc32)cc(OC)c1OC [Example 44, (Z)-5-fluoro-2-methyl-1-(3,4,5-trimethoxybenzylidene)-3-(N-3-dimethylaminopropyl)-idenylacetamide] | 25% | > 10000 nM | > 10000 nM | 2.7 | 51* % | –
COc1ccc(CNC(=O)CC2=C(C)/C(=C/c3cc(OC)c(OC)c(OC)c3)c3ccc(F)cc32)c(OC)c1 [Example 19, (Z)-5-fluoro-2-methyl-1-(3,4,5-trimethoxybenzylidene)-3-(N-2,4-dimethoxybenzyl)-indenylacetamide] | <20% | 4500 nM | 7000 nM | 2 | – | 33.3%
COc1ccccc1CNC(=O)CC1=C(C)/C(=C/c2cc(OC)c(OC)c(OC)c2)c2ccc(F)cc21 [Example 15, (Z)-5-fluoro-2-methyl-1-(3,4,5-trimethoxybenzylidene)-3-(N-2-methoxybenzyl)-indenylacetamide] | 72% | 390 nM | 300 nM | 2.1 | – | <25%
COc1cc(/C=C2/C(C)=C(CC(=O)N[C@H](C)c3ccccc3)c3cc(F)ccc32)cc(OC)c1OC [Example 42, (Z)-5-fluoro-2-methyl-1-(3,4,5-trimethoxybenzylidene)-3-(N-(R)-1-phenethyl)-indenylacetamide] | <20% | 690 nM | 3000 nM | 3.8 | 49* % | –
COc1cc(/C=C2/C(C)=C(CC(=O)NCc3ccccc3F)c3cc(F)ccc32)cc(OC)c1OC [Example 32, (Z)-5-fluoro-2-methyl-1-(3,4,5-trimethoxybenzylidene)-3-(N-2-fluorobenzyl)-indenylacetamide] | 55% | 2200 nM | 320 nM | 2.5 | 58* % | –
COc1cc(/C=C2/C(C)=C(CC(=O)NCc3ccccc3N)c3cc(F)ccc32)cc(OC)c1OC [Example 34, (Z)-5-fluoro-2-methyl-1-(3,4,5-trimethoxybenzylidene)-3-(N-2-aminobenzyl)-indenylacetamide] | 45% | 6200 nM | > 10000 nM | 2.1 | 31* % | –
COc1cc(/C=C2/C(C)=C(CC(=O)N[C@@H](C)c3ccccc3)c3cc(F)ccc32)cc(OC)c1OC [Example 43, (Z)-5-fluoro-2-methyl-1-(3,4,5-trimethoxybenzylidene)-3-(N-(S)-1-phenylethyl)-indenylacetamide] | 25% | > 10000 nM | > 10000 nM | <2 | 36* % | –
COc1cc(/C=C2/C(C)=C(CC(=O)NCc3c(F)c(F)c(F)c(F)c3F)c3cc(F)ccc32)cc(OC)c1OC [Example 51, (Z)-5-fluoro-2-methyl-1-(3,4,5-trimethoxybenzylidene)-3-(N-pentafluorobenzyl)-idenylacetamlde] | 40% | 2250 nM | > 10000 nM | <2 | <25* % | –
COc1cc(/C=C2/C(C)=C(CC(=O)N(CCN(C)C)Cc3ccccc3)c3cc(F)ccc32)cc(OC)c1OC [Example 36, (Z)-5-fluoro-2-methyl-1-(3,4,5-trimethoxybenzylidene)-3-(N-benzyl-N-2-dimethylaminoethyl)-indenylacetamide] | 22% | 3000 nM | 10 nM | 5.3 | 72* % | –
CCOC(=O)CN(Cc1ccccc1)C(=O)CC1=C(C)/C(=C/c2cc(OC)c(OC)c(OC)c2)c2ccc(F)cc21 [Example 31, (Z)-5-fluoro-2-methyl-1-(3,4,5 trimethoxybenzylidene)-3-(N-benzyl-N-glycinylethyl ester)-indenylacetamide] | 30% | 5200 nM | > 10000 nM | <2 | 30* % | –
